Results as given in US10653676B2 (Dana-Farber Cancer Institute, Inc., priority 2010, dated 2020).

Target: T1, UCH-L3 (Homo sapiens, UniProt P15374)
T1 sequence (P15374 1-230): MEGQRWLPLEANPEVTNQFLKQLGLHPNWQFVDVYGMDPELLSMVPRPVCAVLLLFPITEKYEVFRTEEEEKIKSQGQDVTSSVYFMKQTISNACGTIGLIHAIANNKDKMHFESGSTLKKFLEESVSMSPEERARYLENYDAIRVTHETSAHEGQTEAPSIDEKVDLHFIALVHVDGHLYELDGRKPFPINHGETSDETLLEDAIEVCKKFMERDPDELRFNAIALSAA
Assay: deubiquitinating enzyme assay with UCH-L3
Assay type: biochemical
Details: in vitro
Method: The in vitro enzymatic assays were performed using purified proteins from Sf9 cells as described previously (Cohn et al.). The assays using ubiquitin-AMC (Ub-7-amido-4-methylcoumarin; Boston Biochem) as substrate was carried out in a reaction buffer containing 20 mM HEPES-KOH (pH 7.8), 20 mM NaCl, 0.1 mg/ml ovalbumin, 0.5 mM EDTA and 10 mM dithiothreitol. The fluorescence was measured by FluoStar Galaxy Fluorometer (BMG Labtech). For the Ub-vinylsulfone (VS) assay, the proteins were incubated with Ub-VS at 0.5 μM final concentration for 1 h at 30° C., followed by the immunoblotting analysis.
To examine the specificity of C527 in USP1/UAF1 inhibition, its ability to inhibit other DUB enzymes in vitro was examined. […] Moreover, the active complex of USP12 contains an additional WD40 subunit (WDR20). […] UCH-L1 and UCH-L3 are members of a different subclass of deubiquitinating enzymes, referred to as the ubiquitin-carboxy terminal hydrolases (Mermerian A H, Case A, Stein R L, Cuny G D. Structure-activity relationship, kinetic mechanism, and selectivity for a new class of ubiquitin C-terminal hydrolase-L1 (UCH-L1) inhibitors. Bioorg Med Chem Lett. 2007; 17:3729-3732). […] Taken together, C527 is a pan-deubiquitinating enzyme inhibitor in vitro, though it has some specificity for the USP subfamily of DUBs, compared to the UCH subfamily.

SMILES: O=C1c2ccccc2C(=O)c2oc(-c3ccc(F)cc3)nc21 [Formula IV (527)]
- inhibitory effect on UCH-L3: considerably less inhibitory effect
